How the values were obtained:
[1] = system: Gram-positive or Gram-negative microorganisms; conditions: acid pH (free acid form); cited from earlier work
[2] = system: S. typhi; conditions: 0.25 g/l; cited from earlier work
[3] = system: Vibrio cholerae; conditions: 0.25 g/l; cited from earlier work
[4] = system: Shigella sonnei; conditions: 0.25 g/l; cited from earlier work
[5] = system: Gram-positive or Gram-negative bacteria; conditions: in vitro, concentration not given; cited from earlier work
[6] = system: iagA′-lacZcat fusion in S. typhi strain Ty267; assay: "Biotype 100" plate screen for carbon-based substrates that repress the iagA′-lacZcat fusion (β-galactosidase activity); type: cell-based; conditions: "Biotype 100" cupule, amount of substrate not known; favourable LB medium; 36 hours at 37° C.; control cupule without substrate 11 250
Method: (§1) Each of the strains described above was cultured at 37° C. on agar or in TCS broth. The P-galactosidase activity was determined using 4-methyl-umbelliferyl-p-D-galactopyranoside sold by the company Sigma, according to the technique of Klarsfeld et al. (Mol. Mibrobiol., 1994, 13, 585-597). The results, expressed in P-galactosidase units (fluorescence per hour and per OD600), represent the mean of the values obtained in at least three independent experiments. The standard deviations were less than 10% of the values presented.
A “Biotype 100”® plate sold by the company BioMerieux is composed of 100 microcupules. Each micro-cupule contains a dehydrated carbon-based substrate, with the exception of the first cupule, which is a control without substrate (the amount of dehydrated substrate per cupule is not given by the manufacturer).
In the context of the present example, these plates were used to search for carbon-based compounds which would block the expression of the invasion genes in Salmonella.
For this, the S. typhi strain Ty267, which is a derivative of the parental strain Ty2 carrying the iagA′-lacZcat transcriptional fusion (Table I), was cultured in TCS broth for 18 hours at 37° C. with shaking (200 rpm).
This culture was then diluted 100-fold in favourable LB medium (0.6 ml of culture for 60 ml of favourable LB), and then this suspension was used immediately to seed the 100 cupules of a “Biotype 100”® plate, in a proportion of 450 μl of suspension per cupule.
After incubation for 36 hours in an incubator at 37° C., the activity of the iagA′-lacZcat fusion in the Ty267 strain was determined for the culture of each cupule.
By comparing the value of the P-galactosidase activity measured in a cupule containing a carbon-based substrate with that of the control cupule without substrate, it was possible to investigate whether a substrate had no effect on, activated or repressed the expression of the iagA′-lacZcat fusion.
The S. typhi strain Ty267 (iagA′-lacZ fusion), suspended in the favourable LB medium, was used to seed the “Biotype 100”® plates.
The β-galactosidase activity expressed by the iagA′-lacZ fusion was determined for the culture in each cupule. With respect to the β-galactosidase activity measured in the control cupule without substrate (11 250 β-galactosidase units), no substrate caused an increase in the expression of the iagA′-lacZ fusion.

[7] = system: iagA′-lacZ fusion (S. typhi strain Ty267); assay: β-galactosidase activity of the iagA′-lacZ fusion in favourable LB medium; type: cell-based; conditions: 5 mM in favourable LB medium, 6 hours at 37° C.; for β-galactosidase activity of the iagA′-lacZ fusion (Table II): control 12134 ± 1811; for inhibition of the expression of the iagA′-lacZ fusion in S. typhi (in words): sodium salt
Method: (§2) The favourable LB medium (high osmolarity and concentration of Ca^2+ions) was defined as being the standard LB medium modified so as to have a final NaCl concentration of 300 mM and a final Ca concentration of 5 mM.
Each of the strains described above was cultured at 37° C. on agar or in TCS broth. The P-galactosidase activity was determined using 4-methyl-umbelliferyl-p-D-galactopyranoside sold by the company Sigma, according to the technique of Klarsfeld et al. (Mol. Mibrobiol., 1994, 13, 585-597). The results, expressed in P-galactosidase units (fluorescence per hour and per OD600), represent the mean of the values obtained in at least three independent experiments. The standard deviations were less than 10% of the values presented. […]
The β-galactosidase activity of the iagA′-lacZ fusion was measured after incubation for 6 hours at 37° C. with shaking (200 rpm).
The S. typhi Ty267 strain (iagA′-lacZ fusion) was seeded into favourable LB medium and into favourable LB medium containing the fatty acid to be tested, in the form of its sodium salt, at the final concentration of 5 mM.

[8] = system: Salmonellae; assay: Bactericidal or bacteriostatic effect on the Salmonellae at neutral pH; type: cell-based, Salmonella
[9] = system: invF′-lacZ fusion (S. typhi strain Ty272); assay: β-galactosidase activity of the invF′-lacZ fusion in favourable LB medium; type: cell-based
Method: as §2, §1
(§3) For this, the S. typhi strains Ty267, Ty272 and Ty277, which carry the iagA′-lacZ, invF′-lacZ and sipB′-lacZ fusions, respectively, (see Table I), were cultured in the favourable LB or unfavourable LB medium.
(§4) The action of these two compounds on the expression of the iagA′-lacZ, invF′-lacZ and sipB′-lacZ fusions was studied by measuring the β-galactosidase activity expressed by these fusions as a function of the time of culturing (samples removed every two hours).

[10] = system: sipB′-lacZ fusion (S. typhi strain Ty277); assay: β-galactosidase activity of the sipB′-lacZ fusion in favourable LB medium; type: cell-based
Method: as §2, §1, §3, §4

[11] = system: tviB′-lacZ fusion (S. typhi strain Ty266); assay: β-galactosidase activity of the tviB′-lacZ fusion (specificity control); type: cell-based; conditions: 5 mM in favourable LB medium
Method: as §1
The tviB gene has been characterized in S. typhi, and it encodes a GDP-dehydrogenase involved in the biosynthesis of the Vi antigen, which is the capsular polysaccharide of the typhus bacillus (Waxin et al., Res. Microbiol., 1993, 144, 363-371).
The results are reported on FIG. 4, in which it is seen that samples were taken every two hours in order to measure the OD600 (corresponding to the open symbols) and in order to determine the β-galactosidase activity (corresponding to the solid symbols).

[12] = system: S. typhi strain Ty2; assay: Mobility by the U-tube culturing technique; type: cell-based; conditions: U tube supplemented with 5 mM
Method: The mobility of each strain was studied using the U-tube culturing technique (Popoff and Le Minor, Guide pour la preparation des serum anti-Salmonella (Guide for preparing salmonella antisera], 1997). When necessary, the culture media were supplemented with chloramphenicol (Cm) at 15 μg/ml.

[13] = system: S. typhimurium C52; assay: Splenic colonization of C57Bl/6 mice infected orally with S. typhimurium C52; type: in vivo
Method: The 5-6-week-old female C57Bl/6 mice used in the context of this experiment originated from the IFFA-CREDO breeding centre (LArbresle, France).
They were infected orally in the following way. The Salmonella strains were cultured in TCS broth for 18 hours at 37° C. with shaking (200 rpm). This culture was then adjusted to […] (in the stationary growth phase, 1 OD600 =1.5 ×10^9 bacteria/ml), and then the number of viable bacteria was controlled by counting on TCS agar.
On the day of infection (DO), the drinking-water bottles of the mice were replaced with bottles containing 100 ml of drinking water to which the required number of bacteria had been added.
After infection for 24 hours ([…]), the bottles containing the contaminated drinking water were replaced with bottles containing uncontaminated drinking water.
Seven days after infection (D+7), the spleens of the mice infected in this way were removed and homogenized separately in 1 ml of physiological saline containing 0.7% of NaCl.
The number of viable bacteria per spleen was determined by plating out dilutions of the homogenate, onto TCS agar.
The effect of the composition of the drinking water on the splenic colonization by Salmonella was estimated using the Student's t test.
The S. typhimurium strain C52 was used to infect C57Bl/6 mice orally.
On this figure, the number of viable bacteria is given as the mean (log10) of the values ± the standard deviation. […]

[14] = system: iagA′-lacZ fusion (S. typhi strain Ty267); assay: β-galactosidase activity of the iagA′-lacZ fusion in favourable LB medium; type: cell-based
[15] = concentration greater than or equal to 2.5 mM, favourable LB medium

CCCCCCCCCC(=O)O [decanoic acid]
bactericidal activity on a great variety of Gram-positive or Gram-negative microorganisms [1]: bactericidal activity

CCCCCCCCCCCC(=O)O [lauric acid]
bactericidal activity in vitro on S. typhi [2]: bactericidal activity
bactericidal activity in vitro on Vibrio cholerae [3]: bactericidal activity
bactericidal activity in vitro on Shigella sonnei [4]: bactericidal activity
bacteriostatic or bactericidal effect on Gram-positive or Gram-negative bacteria [5]: very effective

CCCCC/C=C\C/C=C\CCCCCCCC(=O)O [linoleic acid]
bacteriostatic or bactericidal effect on Gram-positive or Gram-negative bacteria [5]: very effective

CCCCCC(=O)O [n-hexanoic acid]
bactericidal activity on a great variety of Gram-positive or Gram-negative microorganisms [1]: bactericidal activity

CCCCCCCC/C=C\CCCCCCCC(=O)O [oleic acid]
bacteriostatic or bactericidal effect on Gram-positive or Gram-negative bacteria [5]: very effective

O=C([O-])CCc1ccccc1.[Na+] [sodium 3-phenylpropionate]
β-galactosidase activity expressed by the iagA′-lacZ fusion in the cupule [6]: 166 β-galactosidase units
β-galactosidase activity of the iagA′-lacZ fusion (Table II) [7]: 297 ± 95 β-galactosidase units
inhibition of the expression of the iagA′-lacZ fusion in S. typhi (in words) [7]: inhibit
bactericidal or bacteriostatic effect on the Salmonellae [8]: none of these compounds has any significant bactericidal or bacteriostatic effect

O=C([O-])c1ccccc1.[Na+] [sodium benzoate]
β-galactosidase activity expressed by the iagA′-lacZ fusion in the cupule [6]: 245 β-galactosidase units
β-galactosidase activity of the iagA′-lacZ fusion (Table II) [7]: 190 ± 17 β-galactosidase units
inhibition of the expression of the iagA′-lacZ fusion in S. typhi (in words) [7]: inhibit
decrease of the activity of the invF′-lacZ fusion with respect to favourable LB medium without the substance ([9]; 1 mM in favourable LB medium): 50%
expression of the invF gene (invF′-lacZ fusion) [9, 15]: very strongly represses
decrease of the activity of the sipB′-lacZ fusion with respect to favourable LB medium without the substance ([10]; 1 mM in favourable LB medium): 50%
expression of the sipB gene (sipB′-lacZ fusion) [10, 15]: very strongly represses
effect on the expression of the tviB′-lacZ fusion [11]: no significant effect
mobility of the Ty2 strain [12]: same mobility
effect on the level of splenic colonization / protection (in words) ([13]; 50 mM (EDTA 10 mM) in drinking water, 5 × 10^7 bacteria orally): no effect
Number of viable bacteria in the spleen (mean log10) (Table III) ([13]; 50 mM each (EDTA 10 mM) in drinking water pH 7.2-7.3 from two days before infection, 5 × 10^7 bacteria (125 LD50) orally, D+7, distilled water 7.9 ± 0.3): 7.8 ± 0.8 log10
bactericidal or bacteriostatic effect on the Salmonellae [8]: none of these compounds has any significant bactericidal or bacteriostatic effect
decrease of the activity of the iagA′-lacZ fusion with respect to favourable LB medium without the substance ([14]; 1 mM in favourable LB medium): 50%
expression of the iagA gene (iagA′-lacZ fusion) [14, 15]: very strongly represses

O=C([O-])Cc1ccccc1.[Na+] [sodium phenylacetate]
β-galactosidase activity expressed by the iagA′-lacZ fusion in the cupule [6]: 81 β-galactosidase units
β-galactosidase activity of the iagA′-lacZ fusion (Table II) [7]: 149 ± 24 β-galactosidase units
inhibition of the expression of the iagA′-lacZ fusion in S. typhi (in words) [7]: inhibit
bactericidal or bacteriostatic effect on the Salmonellae [8]: none of these compounds has any significant bactericidal or bacteriostatic effect
